Data on 1 compound can be found in patent US20240142467A1, “Use of Biomarkers in the Treatment of Fibrotic Conditions with a PDE4B-inhibitor” (Boehringer Ingelheim International GmbH, priority 2022, published 2024).

Structures are written as SMILES.

In the assay the test system is bleomycin-induced lung fibrosis. The assay can be described thus: Rat bleomycin model of pulmonary fibrosis. Type of assay: in vivo, Wistar rats. The method, then:
Pulmonary remodeling was induced in rats by a single intratracheal administration of 1 mg/kg bleomycin.
Adult, test-naïve, male Wistar rats (WI(Han)); 280-300 g) were purchased from Janvier (Janvier Labs, Le Genest-Saint-Isle, France). All animal experimentation was conducted in accordance with German national guidelines and legal regulations and approved by the ethical committee Regierungspräsidium Tübingen (Germany) (Permit Number: 12-012).
Bleomycin was dissolved in phosphate buffered saline (PBS) to a final concentration of […]. On day 0, animals were transiently anaesthetised with isoflurane (3-4%) in oxygen. Using a 1 ml-Syringe with a 22-gauge flexible cannula, 200 μL/kg of either saline or bleomycin (final dose 1 mg/kg) were administered intratracheally.
The PDE4-inhibitor of formula A′ was dissolved in 0.5% hydroxyethyl cellulose containing 0.01% Tween20 and applied by oral gavage at a dose of 2.5 mL/kg twice daily at 06:00 and 18:00 from day 10 until day 20.
On day 18, animals were anaesthetized using 3-4% isoflurane and placed on the μCT (Quantum FX) scanner mounting plate. After measurement, animals were returned to the home cage for recovery. During imaging, synchronization procedures were employed for avoidance of motion blur (respiration, heart beat) thereby improving the quality of the images. The reconstruction of the three-dimensional pictures from the raw data could subsequently be performed.
Animals were anaesthetised with Narcoren (60 mg/mL/kg body weight i.p.) and Ketamine (0.5-1 mg/animal, i.m.). The trachea was exposed, a small incision made, and a tracheal tube fixed within the trachea by a ligature. Spontaneous breathing was suppressed by pancuronium (0.8 mg/kg; 1 mL/kg body weight, i.v.) and animals were mechanically ventilated with a tidal volume of 10 mL/kg, breathing frequency of 90 breaths/minute and a positive end expiratory pressure of 3 cmH2O. Airway resistance, compliance, elastance and pressure volume loop was determined by means of a FlexiVent system supported by software version 7.2. To perform the lung function measurement the template “FlexiVent FX-Rat Default-rel.B” with the script “Rat 6basic_1loop v7.0 Lamb” was used. A deep inspiration to total lung capacity (Deep Inflation) was performed with an inflation pressure limited to 30 cmH2O. A “Snapshot-90 v7.0, Quick Prime-3 v7.0, PVS-V v7.0 and PVs-P v7.0 measurement was subsequently conducted. After the lung function measurement animals were euthanized by an overdose of Narcoren (0.16 g/5 ml, 1 ml/animal i.v.).
The right main bronchus was occluded with a ligature and the right lung was removed. […]
All data are presented as means±S.E.M. of n animals. Statistical differences between groups were analyzed by the non-clinical statistical group.

As for `[O-][S@+]1CCc2nc(N3CCC(c4ncc(Cl)cn4)CC3)nc(NC3(CO)CCC3)c21` [Compound of formula A′], under “2.5 mg/kg oral twice daily, day 10 to day 20, μCT on day 18, bleomycin 1 mg/kg intratracheal, P<0.05”, the “improvement in tissue volume (ratio of remodeled tissue to total lung volume) measured by μCT” value came out at 64%. The “restoration of lung volume measured at a pressure of 30 cmH2O” value (oral twice daily, day 10 to day 20, FlexiVent, P<0.05) is 31%. The “reduction of OPN levels in lung tissue” value (oral twice daily, day 10 to day 20, OPN ELISA of right lung homogenate) is “approx. 49%”. The lung function result (therapeutic rat model of bleomycin-induced lung fibrosis) is “improved lung function”.
